Assays:
Assay type in all cases: cell-based, human
[1] = tested on: MDA-MB-231/ATCC; experiment: NCI60 one-dose screen, MDA-MB-231; conditions: MDA-MB-231/ATCC (Breast Cancer); NCI 60 one-dose, 10^-5 M
Procedure: (§1) Anti-cancer activity screening of all compounds was performed by the NCI Developmental Therapeutics Program (DTP) through their NCI60 screening initiative. Assay details can be found at the website dtp.cancer.gov/discovery_development/nci-60/methodology.htm. Information from this website is reproduced here for convenience.
(§2) As of early 2007 all compounds submitted to the NCI 60 Cell screen are tested initially at a single high dose (10^-5 M) in the full NCI 60 cell panel. Only compounds which satisfy pre-determined threshold inhibition criteria in a minimum number of cell lines will progress to the full 5-dose assay. The threshold inhibition criteria for progression to the 5-dose screen was selected to efficiently capture compounds with anti-proliferative activity based on careful analysis of historical DTP screening data. The threshold criteria may be updated as additional data becomes available.
(§3) The One-dose data will be reported as a mean graph of the percent growth of treated cells and will be similar in appearance to mean graphs from the 5-dose assay. […]
(§4) Following drug addition, the plates are incubated for an additional 48 h at 37° C., 5% CO2, 95% air, and 100% relative humidity. […] Bound stain is subsequently solubilized with 10 mM trizma base, and the absorbance is read on an automated plate reader at a wavelength of 515 nm. […]

[2] = tested on: BT-549; experiment: NCI60 one-dose screen, BT-549; conditions: BT-549 (Breast Cancer); NCI 60 one-dose, 10^-5 M
Procedure: as §1, §2, §3, §4

[3] = tested on: NCI-H522; experiment: NCI60 one-dose screen, NCI-H522; conditions: NCI-H522 (Non-Small Cell Lung Cancer); NCI 60 one-dose, 10^-5 M
Procedure: as §1, §2, §3, §4

[4] = tested on: SN12C; experiment: NCI60 one-dose screen, SN12C; conditions: SN12C (Renal Cancer); NCI 60 one-dose, 10^-5 M
Procedure: as §1, §2, §3, §4

[5] = tested on: MALME-3M; experiment: NCI60 one-dose screen, MALME-3M; conditions: MALME-3M (Melanoma); NCI 60 one-dose, 10^-5 M
Procedure: as §1, §2, §3, §4

[6] = tested on: HS 578T; experiment: NCI60 one-dose screen, HS 578T; conditions: HS 578T (Breast Cancer); NCI 60 one-dose, 10^-5 M
Procedure: as §1, §2, §3, §4

SMILES | Growth Percent [1] [%] | Growth Percent [2] [%] | Growth Percent [3] [%] | Growth Percent [4] [%] | Growth Percent [5] [%] | Growth Percent [6] [%]
CC(=O)N1c2ccccc2NC2=C(C(=O)N(Cc3ccccc3)C2(C)C)C1c1ccco1 (stereo not drawn) [NUCC-608455] | 9.25 | 47.62 | 21.79 | 35.91 | 69.89 | 10.67
CC(=O)N1c2ccccc2NC2=C(C(=O)N(C)C2(C)C)C1c1ccccc1 (stereo not drawn) [NUCC-60872] | 63.32 | 69.46 | 18.58 | 40.74 | 44.26 | 20.42
